# In patent publication US20140314757A1, “PHYTOCANNABINOIDS FOR USE IN THE TREATMENT OF BREAST CANCER” (priority 2011, published 2014):
# Experiments:
# BT474 cells = experiment: MTT cell viability, BT474 cells; assay type: cell-based, human; conditions: for cell viability, increasing concentrations: 72 h, concentration-related (FIG. 2); for cell viability at low concentrations: <1 μM, alone or 1:1 combination, 72 h (FIG. 3)
# Experimental: (§1) The effect of THC and CBD, alone and in combination, on the viability of two different Her2-positive human breast cancer cell lines: SkBr3 and BT474 were tested.
# (§2) Briefly, cells were incubated in RPMI (SkBr3) or DMEM (BT474) supplemented with 10% foetal bovine serum. After 12 hours of serum starvation, the cells were challenged with different concentrations of THC or CBD (or the corresponding vehicle, DMSO) for 72 h. Cell viability was then determined by the colorimetric MTT test.
# The analysis of the combined drug effect was performed with the CalcuSyn v2.0 software. To determine whether the combination of THC and CBD was additive or synergistic, we calculated different combination indexes (Cis) using the algorithm by Chou and Talalay with the CalcuSyn v2.0 software.
# For each ED, the software (i) plots a line connecting the concentrations of THC and CBD that produce that particular effect when administered as single agents, and (ii) generates a point that indicates the concentration of THC and CBD, applied as a combination, required to produce such effect. If the line is straight, this means that the two compounds are producing a simple additive effect and the point should appear within it.
# The effect of THC and CBD, alone and in combination at different ratios, on the viability of BT474 cells was examined.
# Cells were incubated in DMEM supplemented with 10% foetal bovine serum. After 12 hours of serum starvation, cells were challenged for 72 h as described in Table 3.1. Cell viability was then determined by the colorimetric MTT test.
# SkBr3 cells = experiment: MTT cell viability, SkBr3 cells; assay type: cell-based, human; conditions: for cell viability, increasing concentrations: 72 h, concentration-related (FIG. 2)
# Experimental: as §1, §2
# [1] = system: 231-Met (highly metastatic 231-Her2-derived cell line); experiment: MTT cell viability, highly metastatic 231-Her2 cells; assay type: cell-based, human; conditions: for cell viability, increasing concentrations: 72 h (FIG. 9); for IC50 values, cell viability: 72 h, THC compared with CBD (FIG. 9)
# Experimental: The effect of THC and CBD on the viability of a series of Her2-positive human breast cancer cell lines: MDA-MB-231 cells that ectopically overexpress Her2 (231-Her2), a highly metastatic version of 231-Her2 (231-Met), and three different trastuzumab-resistant 231-Her2-derived cell lines (TrR1, TrR2 and TrR3).
# Cells were incubated in DMEM supplemented with 10% foetal bovine serum. After 12 hours of serum starvation, cells were challenged with different concentrations of THC or CBD (or the corresponding vehicle, DMSO) for 72 h. Cell viability was then determined by the colorimetric MTT test.
# (§3) Cells were incubated in the presence of cannabinoids for 48 h and cell viability was assessed by the MTT colorimetric test.
# MDA-MB-231 cells = experiment: MTT cell viability, MDA-MB-231 cells; assay type: cell-based, human; conditions: 48 h (FIG. 11)
# Experimental: as §3
# [2] = system: MDA-MB-231 cells stably overexpressing Her2 (231-Her2); experiment: MTT cell viability, 231-Her2 cells; assay type: cell-based, human; conditions: 48 h (FIGS. 13 and 14)
# Experimental: as §3
# id-1 gene expression = conditions: MDA-MB231 and MDA-MB436 cell lines; cited from earlier work
Molecule,"cell viability, increasing concentrations (BT474 cells)",cell viability at low concentrations (BT474 cells),"cell viability, increasing concentrations (SkBr3 cells)","cell viability, increasing concentrations [1]","IC50 values, cell viability [1]","cell viability, single agents (MDA-MB-231 cells)","cell viability, single agents, increasing concentrations [2]",id-1 gene expression (id-1 gene expression),"cell viability upon exposure to THC (BT474 cells; 6 μM THC, 72 h (FIG. 1C))","cell viability upon exposure to THC (SkBr3 cells; 3 μM THC, 72 h (FIG. 1C))","effect of CB2 antagonist on THC-induced decrease of viability (BT474 cells; 6 μM THC with 2 μM SR144528, 72 h (FIG. 1C))","effect of CB2 antagonist on THC-induced decrease of viability (SkBr3 cells; 3 μM THC with 2 μM SR144528, 72 h (FIG. 1C))"
"C=C(C)[C@@H]1CCC(C)=C[C@H]1c1c(O)cc(CCCCC)cc1O [CBD, cannabidiol]",reduced their viability,no effect on cell viability,reduced their viability,decreased its viability,virtually identical,sensitive,decreases,inhibit,–,–,–,–
"CCCCCc1cc(O)c2c(c1)OC(C)(C)[C@@H]1CCC(C)=C[C@@H]21 [THC, tetrahydrocannabinol]",reduced their viability,no effect on cell viability,reduced their viability,decreased its viability,virtually identical,sensitive,decreases,–,decreases,decreases,–,–
SR144528,–,–,–,–,–,–,–,–,–,–,prevented,prevented
